Data as given in patent US20020091095A1, “Modulation of Fas and FasL expression” (priority 1999, published 2002).

Key:
Fas [1] = assay: Inhibition of Fas expression on Jurkat cells by cycloheximide; format: cell-based, human; conditions: Jurkat cells, 0.1 μg/ml cycloheximide
Method: (§1) Fas and FasL expression were measured by flow cytometry using anti-Fas FITC-conjugated monoclonal antibodies and anti-FasL PE-conjugated monoclonal antibodies in a FACScalibur Flow Cytometer (Becton Dickinson, San Jose, Calif., USA) using the CELLQuest program (Becton Dickinson).
(§2) Results are expressed as percentage (%) increase in the expression of Fas and of FasL measured on treated cells compared to control cells.
Jurkat human leukemia T cells were pre-incubated with 0.0 μg/ml (−CHX) or with 0.1 μg/ml of cycloheximide (+CHX) for 1 h. Ten μg/ml or 100 μg/ml of 6 base SEQ ID NO:5 (GGGTGG) was added to both the −CHX and +CHX cells and the incubation was continued for 24 hours and for 48 hours (Table 10).

FasL [2] = assay: FasL expression at the cell surface by flow cytometry, UMUC-3 cells; format: cell-based, human; conditions: UMUC-3 bladder cancer cells, 100 μg/ml sequence, 48 h, treated vs control cells
Method: (§3) Cancer cells and PBMCs were seeded in 6 well flat-bottom microplates and were maintained at 37° C. in a 5% CO2 atmosphere. Unless stated otherwise, 2×10^5 cells/ml were incubated for 48 h with 0 μg/ml (control) or 100 μg/ml ([…]) (treated) of the sequences.
as §1, §2
(§4) UMUC-3 bladder cancer cells are a P-glycoprotein overexpressing human cell line.

Fas [3] = assay: Fas expression at the cell surface by flow cytometry, T-24 cells; format: cell-based, human; conditions: T-24 bladder cancer cells, 100 μg/ml sequence, 48 h, treated vs control cells
Method: as §3, §1, §2
(§5) T-24 bladder cancer cells are a p53 mutated human cell line T-24 cells (1.0×10^5 cells/ml) were incubated with the 6 base sequences shown in Table 4.

Fas [4] = assay: Fas expression at the cell surface by flow cytometry, PBMCs; format: cell-based, human; conditions: 100 μg/ml sequence, 48 h, treated vs control cells
Method: (§6) Peripheral blood mononuclear cells (hereinafter, “PBMCs”) were isolated from human blood by Ficoll-Hypaque (Amersham Pharmacia Biotech, Baie d'Urfée, Québec, Canada) density gradient centrifugation.
as §3, §1, §2

FasL [5] = assay: FasL expression at the cell surface by flow cytometry, SK-OV-3 cells; format: cell-based, human; conditions: SK-OV-3 ovarian cancer cells, 100 μg/ml sequence, 48 h, treated vs control cells
Method: as §3, §1, §2
(§7) SK-OV-3 ovarian cancer cells are a p53 mutated, p21/waf-1/Cip deleted, p15^ink4B,p16^ink4 deleted metastatic human solid tumor model.

FasL [6] = assay: FasL expression at the cell surface by flow cytometry, T-24 cells; format: cell-based, human; conditions: T-24 bladder cancer cells, 100 μg/ml sequence, 48 h, treated vs control cells
Method: as §3, §1, §2, §5

Fas [7] = assay: Fas expression at the cell surface by flow cytometry, SK-OV-3 cells; format: cell-based, human; conditions: SK-OV-3 ovarian cancer cells, 100 μg/ml sequence, 48 h, treated vs control cells
Method: as §3, §1, §2, §7

FasL [8] = assay: FasL expression at the cell surface by flow cytometry, PBMCs; format: cell-based, human; conditions: 100 μg/ml sequence, 48 h, treated vs control cells
Method: as §6, §3, §1, §2

Fas [9] = assay: Fas expression at the cell surface by flow cytometry, UMUC-3 cells; format: cell-based, human; conditions: UMUC-3 bladder cancer cells, 100 μg/ml sequence, 48 h, treated vs control cells
Method: as §3, §1, §2, §4

[10] = tested on: EL-4 murine T lymphoma cells; assay: EL-4 murine T lymphoma implanted in C57/BL6 lpr/lpr mice; format: in vivo
Method: EL-4 murine T lymphoma cells are implanted into C57/BL6 lpr/lpr (Fas negative mice). The mice are divided into 30 groups of 10 mice. On day 0, group 1 mice receive saline, group 2 mice receive 1, 10 or 100 mg/kg of SEQ. ID NO:5, group 3 mice receive 1, 10 or 100 mg/kg of SEQ. ID NO:16, group 4 receive 1, 10 or 100 mg/kg of SEQ. ID NO:17, group 5 mice receive 1, 10 or 100 mg/kg of SEQ. ID NO: 18, group 6 mice receive anti-Fas antibodies, group 7 mice receive 1, 10 or 100 mg/kg of SEQ. ID NO:5 +anti-Fas antibodies, group 8 mice receive 1, 10 or 100 mg/kg of SEQ. ID NO: 16 +anti-Fas antibodies, group 9 receive 1, 10 or 100 mg/kg of SEQ. ID NO:17 +anti-Fas antibodies, group 10 mice receive 1, 10 or 100 mg/kg of SEQ. ID NO:18 +anti-Fas antibodies. In these different groups, anti-Fas antibodies are administered at any dose in the range of about 0.003 to about 0.3 mg/kg. […] The efficacy of the SEQ. ID NO:5, the SEQ. ID NO: 16 and the SEQ. ID NO: 17 is dose-dependent.

Fas [11] = assay: Fas expression at the cell surface by flow cytometry, MCF-7 cells; format: cell-based, human; conditions: MCF-7 breast cancer cells, 100 μg/ml sequence, 48 h, treated vs control cells
Method: as §3, §1, §2
(§8) MCF-7 human breast cancer cells are a caspase-3 negative, estrogen-dependent human solid tumor model.

FasL [12] = assay: FasL expression at the cell surface by flow cytometry, OVCAR-3 cells; format: cell-based, human; conditions: OVCAR-3 ovarian cancer cells, 100 μg/ml sequence, 48 h, treated vs control cells
Method: as §3, §1, §2
(§9) OVCAR-3 ovarian cancer cells are a p53 mutated, p21/waf-1/Cip deleted, metastatic human solid tumor model.

FasL [13] = assay: FasL expression at the cell surface by flow cytometry, MCF-7 cells; format: cell-based, human; conditions: MCF-7 breast cancer cells, 100 μg/ml sequence, 48 h, treated vs control cells
Method: as §3, §1, §2, §8

EAE = EAE in (SJL/J×PL/J) F1 mice induced with myelin basic protein; format: in vivo
Method: Female (SJL/J×PL/J) F1 mice are injected subcutaneously in both femoral regions with an emulsion containing 0.5 mg of myelin basic protein (MBP) mixed with complete Freund's adjuvant. After 24 h, 400 ng of Bordetella pertussis toxin is administered intraperitoneally. On the day of onset (day 0), group 1 mice receive saline, group 2 mice receive 1, 10 or 100 mg/kg of SEQ. ID NO:5, group 3 mice receive 1, 10 or 100 mg/kg of SEQ. ID NO:16, group 4 mice receive 1, 10 or 100 mg/kg of SEQ. ID NO:17, group 5 mice receive 1, 10 or 100 mg/kg of SEQ. ID NO: 18, group 6 mice receive anti-Fas antibodies, group 7 mice receive 1, 10 or 100 mg/kg of SEQ. ID NO:5 +anti-Fas antibodies, group 8 mice receive 1, 10 or 100 mg/kg of SEQ. ID NO:16 +anti-Fas antibodies, group 9 receive 1, 10 or 100 mg/kg of SEQ. ID NO:17 +anti-Fas antibodies, group 10 mice receive 1, 10 or 100 mg/kg of SEQ. ID NO: 18 +anti-Fas antibodies for 3 days by intracistemal administration (20 μg/day). In these different groups, anti-Fas antibodies are administered at any dose in the range of about 0.003 to about 0.3 mg/kg. […] The efficacy of the SEQ. ID NO:5, the SEQ. ID NO: 16 and the SEQ. ID NO: 17 is dose-dependent.

Fas [14] = assay: Fas expression at the cell surface by flow cytometry, OVCAR-3 cells; format: cell-based, human; conditions: OVCAR-3 ovarian cancer cells, 100 μg/ml sequence, 48 h, treated vs control cells
Method: as §3, §1, §2, §9

Fas [15] = assay: Fas expression at the cell surface by flow cytometry, Jurkat cells; format: cell-based; conditions: Jurkat human leukemia T cells, 100 μg/ml sequence, 48 h, treated vs control cells
Method: as §3, §1, §2
(§10) Jurkat human leukemia T cells are an atypical multi-drug resistant human suspension tumor cell model.

Fas [16] = assay: Fas expression at the cell surface by flow cytometry, LNCaP cells; format: cell-based, human; conditions: LNCaP prostate cancer cells, 100 μg/ml sequence, 48 h, treated vs control cells
Method: as §3, §1, §2
(§11) LNCaP prostate cancer cells are a TGF-beta 1 receptor negative, […], metastatic human solid tumor model.

FasL [17] = assay: FasL expression at the cell surface by flow cytometry, Jurkat cells; format: cell-based; conditions: Jurkat human leukemia T cells, 100 μg/ml sequence, 48 h, treated vs control cells
Method: as §3, §1, §2, §10

FasL [18] = assay: FasL expression at the cell surface by flow cytometry, LNCaP cells; format: cell-based, human; conditions: LNCaP prostate cancer cells, 100 μg/ml sequence, 48 h, treated vs control cells
Method: as §3, §1, §2, §11

Molecule	% INCREASE FasL (FasL [2])	% INCREASE Fas (Fas [3])	% INCREASE Fas (Fas [4])	% INCREASE FasL (FasL [5])	% INCREASE FasL (FasL [6])	% INCREASE Fas (Fas [7])	% INCREASE FasL (FasL [8])	% INCREASE Fas (Fas [9])	% INCREASE Fas (Fas [11])	% INCREASE FasL (FasL [12])	% INCREASE FasL (FasL [13])	% INCREASE Fas (Fas [14])	% INCREASE Fas (Fas [15])	% INCREASE Fas (Fas [16])	% INCREASE FasL (FasL [17])	% INCREASE FasL (FasL [18])	also measured
C[C@@H]1C[C@@H]([C@H](O)CC2CC(=O)NC(=O)C2)C(=O)[C@@H](C)C1 [cycloheximide, reference compound]	–	–	–	–	–	–	–	–	–	–	–	–	–	–	–	–	decrease of Fas expression by cycloheximide (Fas [1]; with 10 μg/ml of SEQ ID NO:5, after 24 h): 92%; decrease of Fas expression by cycloheximide (Fas [1]; with 10 μg/ml of SEQ ID NO:5, after 48 h): 44%; decrease of Fas expression by cycloheximide (Fas [1]; with 100 μg/ml of SEQ ID NO:5, after 24 h): 65%; decrease of Fas expression by cycloheximide (Fas [1]; with 100 μg/ml of SEQ ID NO:5, after 48 h): 23%
GGGGGG [SEQ ID NO:16]	10%	35%	38%	−28%	−14%	−14%	42%	−5%	−7%	7%	18%	−1%	118%	6%	49%	13%	efficacy, dose dependence ([10]; 1, 10 or 100 mg/kg): dose-dependent; tumor mass ([10]; sequence 1, 10 or 100 mg/kg + anti-Fas antibodies, vs all other groups): least tumor mass; tumor mass ([10]; single agent (sequence 1, 10 or 100 mg/kg, or anti-Fas antibodies) vs group 1 (saline)): less tumor mass; efficacy, dose dependence (EAE; 1, 10 or 100 mg/kg): dose-dependent; progression of EAE (EAE; sequence 1, 10 or 100 mg/kg + anti-Fas antibodies, for 3 days): least progression of EAE
GGTGGG [SEQ ID NO:4]	113%	106%	57%	−17%	29%	−1%	59%	62%	106%	14%	110%	41%	61%	21%	22%	8%	–
ATGTAT [SEQ ID NO:10]	95%	90%	377%	33%	150%	34%	457%	42%	129%	114%	214%	93%	246%	44%	393%	68%	–
GGTTGG [SEQ ID NO:13]	98%	75%	−3%	−3%	25%	16%	−32%	47%	99%	10%	83%	22%	99%	23%	86%	−3%	–
CTGTCT [SEQ ID NO:11]	156%	107%	310%	26%	165%	15%	476%	45%	73%	93%	128%	52%	203%	17%	413%	55%	–
